Assay results published in article PMC5790467, “Enhanced anti-tumor efficacy and mechanisms associated with docetaxel-piperine combination- in vitro and in vivo investigation using a taxane-resistant prostate cancer model” (Oncotarget, 2017).

Experiments:
[1] = test system: PC3-TxR tumor xenografts; assay: Tumor growth in mice with PC3-TxR (taxane-resistant) tumor xenografts; assay type: in vivo, ICR-NOD/SCID mice; conditions: TxR tumor xenografts; two weeks after drug administration; DTX 20 mg/kg once a week i.v., PIP 50 mg/kg daily p.o.
Method: The following experimental protocol was adopted after approval by the Animal Research Ethics Committee at the Chinese University of Hong Kong. PC3 and PC3-TxR cells were cultured in RPMI 1640 medium containing 10% FBS and 1% penicillin-streptomycin in a humidified atmosphere of 5% CO2 at 37°C. PC3 and PC3-TxR cell pellets were re-suspended in serum free RPMI1640 and diluted by Matrigel™ Basement Membrane Matrix (BD Biosciences, Bedford, MA, USA) to the density of 3.33 × 10^6cells/ml. Male ICR-NOD/SCID mice (Laboratory Animal Services Center at the Chinese University of Hong Kong) weighing 25 to 30 g (age 6–8 weeks) was anesthetized with an intraperitoneal injection of a cocktail containing 87 mg/kg ketamine and 8.7 mg/kg xylazine (diluted with saline and the injection volume was about 0.1 ml). The cell suspension was injected subcutaneously to both the left and right flank region. The tumors were allowed to grow for about 2 weeks. Tumor volumes were measured twice per week (tumor volume = [(W^2 × L)/2], where W is the tumor measurement at the widest point, and L is the tumor dimension at the longest point). When the tumors reach about 100 mm^3, treatment was started and the date was designated as Day 0.

[2] = Body weight and tolerability in mice with TxR tumor xenografts
Method: For oral administration of PIP, in 1 ml of PIP dosing solution, 100 µl of its stock solution was solubilized with 500 µl of PEG 400 and 400 µl of physiological saline and the mixture was administrated orally to mice at the dose of 0.1 ml/10 g body weight. […] On Day 0, mice with PC3 cell xenografts were divided into two groups and mice with PC3-TxR cell xenografts were divided into four groups. Mice in each group were treated according to Supplementary Table 3 and the drug dosing lasted for 2 weeks with body weight and tumor sized measured twice per week. […] At the end of experiment, the mice were anesthetized followed by haemospasia to death by cardiac puncture.

[3] = biological target: P-gp (Homo sapiens, UniProt P08183); assay: Intracellular DTX accumulation in PC3-TxR cells; assay type: cell-based; conditions: 100 nM DTX; PIP at 50 μg/ml; 120 min; positive control 10 μg/ml of PSC833
Method: The PC3 and PC3-TxR cells were seeded in 6-well plate with density of 1×10^4 cells/ml and grew for 24 hours. […] The cells were then lysed and the protein level was measured using a BCA approach (Bio Rad Laboratory, Hercules, CA, USA). […] Briefly, to 0.1 ml of cell lysate, 0.3 ml of tert-butyl methyl ether was added and vortexed for 3 min. The upper organic layer was separated and evaporated to dryness. The residue was reconstituted using 0.1 ml of 80% acetonitrile and 10 μl was injected to an HPLC-MS/MS system for quantification. Paclitaxel was used as internal standard. The intracellular concentration was normalized per protein concentration. […] PSC833 (10 μg/ml) was used as positive control. […] The amount of DTX was compared among these treatment groups.

[4] = test system: CYPs (hepatic metabolism of DTX); assay: In vitro inhibition of hepatic metabolism of DTX in mouse liver microsomes; assay type: in vitro ADME, ICR mice; conditions: ICR, pH 7.4, probe DTX (docetaxel) 2 μM
Method: Livers of ICR-NOD/SCID mice administrated with vehicle control or PIP were collected for the ex vivo metabolism study. In vitro metabolic reactions were performed in blank ICR mice liver. Hepatic microsomes were prepared according to the method of Hill. The system of enzymatic incubation was conducted based on the condition reported by Mooiman et al. with minor modification. […] Drug mixture was pre-incubated with mice liver microsome at 0.5 mg/ml in 50 mM phosphate buffer (pH7.4) containing 2.6 mM of NADP^+, 7.1 mM of glucose-6-phosphate and 6.5 mM of magnesium chloride for 15 min. The reaction was initiated by the addition of glucose-6-phosphate dehydrogenase at 0.8 U/ml. After incubation for 60 min, the reaction was terminated by the addition of 200 µl of ice-cold acetonitrile/methanol (50:50, v/v) containing glibenclamide at 100 ng/ml. The mixture was centrifuged at 13000 rpm for 10 min and the supernatant was injected into LC/MS/MS for analysis.

[5] = test system: MCF-7/DOX; set-up: method as in PMID 21802927; conditions: PIP at 50 μM; cited from earlier work
[6] = i.g.; female Fischer rats; cited from earlier work

Sequence of P-gp (P08183 whole entry): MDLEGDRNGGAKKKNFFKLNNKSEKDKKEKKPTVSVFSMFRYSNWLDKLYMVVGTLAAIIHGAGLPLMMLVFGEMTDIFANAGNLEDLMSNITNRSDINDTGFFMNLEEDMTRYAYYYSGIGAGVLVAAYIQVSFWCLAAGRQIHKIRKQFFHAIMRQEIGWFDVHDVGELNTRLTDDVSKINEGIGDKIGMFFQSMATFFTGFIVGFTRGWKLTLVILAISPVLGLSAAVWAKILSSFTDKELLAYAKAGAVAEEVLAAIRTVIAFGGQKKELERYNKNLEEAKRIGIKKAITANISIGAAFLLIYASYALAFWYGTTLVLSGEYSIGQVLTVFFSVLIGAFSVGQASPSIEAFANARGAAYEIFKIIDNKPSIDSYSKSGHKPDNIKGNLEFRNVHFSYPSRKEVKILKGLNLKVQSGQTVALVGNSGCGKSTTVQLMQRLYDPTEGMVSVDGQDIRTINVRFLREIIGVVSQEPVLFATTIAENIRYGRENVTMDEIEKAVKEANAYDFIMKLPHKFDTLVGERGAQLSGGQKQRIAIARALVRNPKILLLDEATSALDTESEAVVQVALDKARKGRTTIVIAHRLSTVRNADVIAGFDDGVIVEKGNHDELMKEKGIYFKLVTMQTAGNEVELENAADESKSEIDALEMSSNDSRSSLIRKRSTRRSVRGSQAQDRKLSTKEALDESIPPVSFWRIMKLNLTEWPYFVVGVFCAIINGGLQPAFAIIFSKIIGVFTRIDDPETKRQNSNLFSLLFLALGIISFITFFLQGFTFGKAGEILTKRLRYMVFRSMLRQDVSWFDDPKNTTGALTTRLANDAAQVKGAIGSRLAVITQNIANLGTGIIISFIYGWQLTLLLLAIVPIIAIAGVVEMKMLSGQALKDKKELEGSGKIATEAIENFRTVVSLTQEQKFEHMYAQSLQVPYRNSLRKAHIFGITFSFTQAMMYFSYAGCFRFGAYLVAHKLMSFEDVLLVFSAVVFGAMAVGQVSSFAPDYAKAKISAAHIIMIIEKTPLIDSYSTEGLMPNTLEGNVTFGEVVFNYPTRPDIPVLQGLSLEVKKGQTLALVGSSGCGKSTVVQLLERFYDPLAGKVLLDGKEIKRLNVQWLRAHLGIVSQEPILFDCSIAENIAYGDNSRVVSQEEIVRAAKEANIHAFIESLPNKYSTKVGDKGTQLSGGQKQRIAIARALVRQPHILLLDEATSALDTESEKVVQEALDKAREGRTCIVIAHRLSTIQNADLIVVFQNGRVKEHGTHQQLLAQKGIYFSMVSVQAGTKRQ

O=C(/C=C/C=C/c1ccc2c(c1)OCO2)N1CCCCC1 [PIP, 1-piperoyl piperidine]
percentage of tumor size increase [1]: 196% | response of mice to PIP at higher dose ([2]; PIP at 100 mg/kg, mice implanted with taxane-resistant prostate cancer): severe excitation responses | percentage of bodyweights ([2]; TxR tumor xenograft mice, two weeks of treatment, control 96%): 98% | intracellular DTX concentration in PC3-TxR cells [3]: increased to a level similar to that in the positive control | IC50 at 60 min [4]: 37.3 µM | enhancement of the sensitivity to doxorubicin [5]: 32 folds | LD50 [6]: 514 mg/kg
